The record followed here is ChEMBL document CHEMBL1201862, “PubChem BioAssay data set” (2004).

The structures appear in SMILES notation.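 A five-concentration, 48-hour dose response in 96-well plates underlies each endpoint, interpolated linearly between surrounding concentrations. The concentration for 50% growth inhibition is given as GI50.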 The source made the active and inactive calls. Cut-off read from the data, not from the text of the source: active = GI50 up to about 1.1 µM and inactive = higher.

Some test systems named below: RXF 393; T47D; BT-549; 786-0; CAKI-1; U-251; MDA-MB-435; RPMI-8226; SW-620; UO-31; SF-268; KM12; HT-29; SN12C; OVCAR-4; NCI/ADR-RES; SK-OV-3; MCF7; HL-60; DU-145.
Common to all, as to assay: NCI-60 cell line screen, 48 h

Consider `CCc1n[nH]c(=O)n1N1C(=O)C2CC=CCC2C1=O` (stereo unspecified), for which the GI50 in the assay on RXF 393, in the assay with T47D, in the assay with BT-549, in the assay with 786-0, in the assay with CAKI-1 and with U-251 was > 100 µM (inactive) throughout. The GI50 with MDA-MB-435, in the assay on RPMI-8226, in the assay with SW-620, with UO-31, in the assay with SF-268 and with KM12 was > 100 µM (inactive) throughout. Besides, the GI50 with HT-29, in the assay on SN12C, in the assay with OVCAR-4, in the assay on NCI/ADR-RES, in the assay with SK-OV-3 and with MCF7 was > 100 µM (inactive) in each case.
As to `O=C(NCCc1ccccc1)c1c(O)nc2ccccc2c1O`, the GI50 with RXF 393, in the assay on BT-549, in the assay on 786-0, in the assay on CAKI-1, in the assay with U-251 and with MDA-MB-435 was > 100 µM (inactive) throughout. Besides, the GI50 in the assay on RPMI-8226, in the assay on HL-60, in the assay with SW-620, with UO-31, with DU-145 and in the assay with SF-268 was > 100 µM (inactive) each time. The GI50 with KM12, with HT-29, in the assay with SN12C, in the assay with OVCAR-4, in the assay with NCI/ADR-RES and in the assay with MCF7 was > 100 µM (inactive) each time.
For the compound `C/C(=N\NC(=O)CC#N)C(CN1CCCCC1)C(c1ccccc1)c1c(O)c2ccccc2oc1=O` (stereo unspecified), the GI50 in the assay on BT-549 was 54.2 µM (inactive); with 786-0 it was 78 µM (inactive); in the assay on CAKI-1, 64.7 µM (inactive); in the assay with U-251 it was 58.6 µM (inactive); with MDA-MB-435, 53.2 µM (inactive); with RPMI-8226 it was 33.7 µM (inactive). For the same compound, the GI50 is 27.2 µM (inactive) in the assay with HL-60; 91.4 µM (inactive) in the assay with SW-620; 33.9 µM (inactive) in the assay on UO-31; > 100 µM (inactive) in the assay with DU-145; > 100 µM (inactive) in the assay on SF-268; 39.5 µM (inactive) with KM12. Also, the GI50 in the assay with HT-29 is 46.8 µM (inactive); in the assay on OVCAR-4, 52.1 µM (inactive); in the assay on NCI/ADR-RES, 48.9 µM (inactive); in the assay with SK-OV-3, 64 µM (inactive); in the assay with MCF7, 17.3 µM (inactive).
In the case of `COc1ccc(-c2nc(N)c(C#N)c3c2CCS(=O)(=O)c2ccc(C)cc2-3)cc1OC`, the GI50 in the assay on T47D is 39.1 µM (inactive); in the assay with BT-549 it was 21.8 µM (inactive); with 786-0, 29 µM (inactive); in the assay on CAKI-1, 27 µM (inactive); in the assay on U-251, 40.6 µM (inactive); in the assay with MDA-MB-435, 15.1 µM (inactive). Moreover, the GI50 was 34.9 µM (inactive) with SW-620; 30.8 µM (inactive) in the assay on UO-31; 29 µM (inactive) with DU-145; 51.2 µM (inactive) in the assay with SF-268; 19.4 µM (inactive) in the assay on KM12; 30.1 µM (inactive) with HT-29. Moreover, the GI50 with SN12C is 50.2 µM (inactive); in the assay on OVCAR-4, 25.8 µM (inactive); in the assay on NCI/ADR-RES, 43.7 µM (inactive).
Regarding `O=C1Oc2ccccc2C(=O)/C1=C/N1C(=O)/C(=C/c2ccc3c(c2)OCO3)SC1=S`, the GI50 is 17.2 µM (inactive) with RXF 393; 13.6 µM (inactive) in the assay with T47D; 43.4 µM (inactive) in the assay with 786-0; 17.5 µM (inactive) with CAKI-1; 10 µM (inactive) in the assay with U-251; 18.7 µM (inactive) in the assay with MDA-MB-435. For the same compound, the GI50 in the assay on RPMI-8226 is 14.1 µM (inactive); with HL-60 it was 26.9 µM (inactive); in the assay with SW-620, 22.8 µM (inactive); in the assay with DU-145, 19.1 µM (inactive); in the assay with SF-268, 13.7 µM (inactive); in the assay on KM12, 16.8 µM (inactive). Moreover, the GI50 is 21.2 µM (inactive) in the assay with HT-29; 18.2 µM (inactive) in the assay with SN12C; 20.8 µM (inactive) with OVCAR-4; 18.5 µM (inactive) with NCI/ADR-RES; 22.5 µM (inactive) in the assay with SK-OV-3; 20.7 µM (inactive) in the assay on MCF7.
As for `CN(NC1=NCCO1)c1ccc2ccccc2c1`, the GI50 in the assay with RXF 393 is 38.6 µM (inactive); in the assay with T47D it was 62.5 µM (inactive); with 786-0, 54.6 µM (inactive); with CAKI-1 it was 32.9 µM (inactive); with U-251 it was 59.7 µM (inactive); with MDA-MB-435, 34.5 µM (inactive). For the same compound, the GI50 in the assay on RPMI-8226 is 76.7 µM (inactive); in the assay on HL-60, 26.9 µM (inactive); in the assay with SW-620, 34.1 µM (inactive); with UO-31, 69.5 µM (inactive); in the assay with DU-145, > 100 µM (inactive); with SF-268 it was 47.5 µM (inactive). Besides, the GI50 in the assay on KM12 is 63.1 µM (inactive); with HT-29, 41.1 µM (inactive); in the assay with SN12C, 62.8 µM (inactive); in the assay on OVCAR-4, 42 µM (inactive); in the assay on NCI/ADR-RES it was 33.2 µM (inactive); in the assay on SK-OV-3, 39.1 µM (inactive). Besides, the GI50 in the assay with MCF7 is 48.6 µM (inactive).
Take `O=C(/C(=N/Nc1cn[nH]c(=O)c1Cl)c1ccccc1)c1ccccc1`: the GI50 with RXF 393 was 0.326 µM (active); in the assay with T47D, 28.4 µM (inactive); with 786-0 it was 16 µM (inactive); with CAKI-1 it was 19.7 µM (inactive); in the assay on U-251, 26.9 µM (inactive); in the assay with MDA-MB-435, 5.11 µM (inactive). Also, the GI50 in the assay on RPMI-8226 was 24.6 µM (inactive); in the assay on HL-60, 16.8 µM (inactive); in the assay with SW-620, 31.3 µM (inactive); in the assay with UO-31, 22.6 µM (inactive); in the assay with DU-145, 20.5 µM (inactive); in the assay with KM12 it was 12.8 µM (inactive). Moreover, the GI50 is 20 µM (inactive) with HT-29; 27.4 µM (inactive) in the assay with SN12C; 41.7 µM (inactive) with OVCAR-4; 17.5 µM (inactive) with NCI/ADR-RES; 39.5 µM (inactive) in the assay on SK-OV-3; 45.8 µM (inactive) with MCF7.
As to `CN1C(=O)c2c(c3c4ccccc4n(C4OC(CO)C(O)C(O)C4O)c3c3[nH]c4ccccc4c23)C1=O` (stereo unspecified), the GI50 with RXF 393 was 3.55 µM (inactive); in the assay on BT-549, 4.99 µM (inactive); in the assay on 786-0, 2.67 µM (inactive); in the assay on CAKI-1, 1.9 µM (inactive); in the assay with U-251 it was 0.681 µM (active); in the assay with MDA-MB-435 it was 2.29 µM (inactive). The GI50 in the assay with RPMI-8226 was 16.1 µM (inactive); in the assay with SW-620, 1.71 µM (inactive); in the assay on UO-31, 2.57 µM (inactive); in the assay on DU-145 it was 2.74 µM (inactive); in the assay with SF-268 it was 0.541 µM (active); in the assay on KM12 it was 3.85 µM (inactive). Also, the GI50 in the assay on HT-29 is 3.13 µM (inactive); with SN12C, 2.82 µM (inactive); in the assay with OVCAR-4, 2.37 µM (inactive); in the assay on NCI/ADR-RES it was 12.5 µM (inactive); in the assay on SK-OV-3 it was 2.92 µM (inactive); in the assay on MCF7, 5.51 µM (inactive).
Consider `COC(=O)CCc1ccc2c(c1)CC1(C2)Cc2ccc(CCC(=O)OC)cc2C1`, for which the GI50 was > 100 µM (inactive) in the assay with RXF 393; 58.2 µM (inactive) with T47D; > 100 µM (inactive) with 786-0; 40.1 µM (inactive) with U-251; > 100 µM (inactive) with MDA-MB-435; 28.4 µM (inactive) in the assay with RPMI-8226. The GI50 in the assay with HL-60 was 17.1 µM (inactive); in the assay with UO-31, > 100 µM (inactive); in the assay on KM12, > 100 µM (inactive); in the assay with HT-29, 62.7 µM (inactive); in the assay with SN12C, 68.5 µM (inactive); with OVCAR-4 it was 53.3 µM (inactive). Besides, the GI50 in the assay with NCI/ADR-RES is > 100 µM (inactive); in the assay on SK-OV-3 it was > 100 µM (inactive); in the assay on MCF7, 48.6 µM (inactive).
For `CSCCCNC(=O)c1csc(-c2csc(CCNC(=O)CNC(=O)CNC(=O)OC(C)(C)C)n2)n1`, the GI50 in the assay on RXF 393, in the assay with BT-549, in the assay on 786-0, with CAKI-1, with U-251 and with MDA-MB-435 was > 100 µM (inactive) in each case. Besides, the GI50 in the assay with HL-60, with SW-620, in the assay on UO-31, in the assay with DU-145, in the assay on SF-268 and in the assay with KM12 was > 100 µM (inactive) each time. The GI50 in the assay on HT-29, in the assay with SN12C, with OVCAR-4, with NCI/ADR-RES, in the assay with SK-OV-3 and in the assay on MCF7 was > 100 µM (inactive) each time.
Consider `COc1ccc(OC(=O)N2C/C(=C\c3ccccc3)C(=O)/C(=C/c3ccccc3)C2)cc1`, for which the GI50 in the assay with RXF 393 is 2.58 µM (inactive); in the assay with T47D, 16 µM (inactive); in the assay on BT-549 it was 2.24 µM (inactive); in the assay on 786-0 it was 2.96 µM (inactive); with U-251, 2.48 µM (inactive); in the assay with RPMI-8226 it was 0.0476 µM (active). The GI50 in the assay with HL-60 is 0.746 µM (active); in the assay on SW-620, 1.03 µM (active); in the assay with UO-31, 10.2 µM (inactive); in the assay with DU-145, 24.9 µM (inactive); with SF-268, 3.67 µM (inactive); in the assay on KM12, 1.43 µM (inactive). The GI50 was 1.27 µM (inactive) in the assay with HT-29; 2.43 µM (inactive) with SN12C; 8.17 µM (inactive) with OVCAR-4; 8.69 µM (inactive) in the assay with SK-OV-3; 0.697 µM (active) in the assay on MCF7.
